Assay results from patent publication US7803801B2, “Aminopyridine compounds having Syk inhibitory activity” (Japan Tobacco, Inc., priority 2005, dated 2010).
Where a name gives a salt, the structure may show the parent alone. Read-outs that look alike come from different tables or passages of the source.

Key:
[1] = target: GST-Syk Full Protein (human) (Homo sapiens, UniProt P43405); assay: Syk kinase inhibition test (HTRF method); type: biochemical
Procedure, shortened: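 Human GST-Syk full-length (6.4 nM) phosphorylated biotin-EDPDYEWPSA-NH2 (250 nM) with 100 μM ATP in HEPES pH 7.0/MgCl2 buffer, 2% DMSO, 30 min at room temperature. EDTA stop, then HTRF detection (streptavidin-XL665, Eu anti-phosphotyrosine) after 1 h; 665/620 ratio read.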

[2] = system: cultured human mast cells; assay: Degranulation inhibition test using cultured human mast cells (IgE cross-linking, β-Hexosaminidase release); type: cell-based; conditions: Mast cell, cultured human mast cells, read-out: human degranulation ave. IC50
Procedure, shortened: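 CD34+ cord-blood cells cultured ≥8 weeks with SCF/IL-6/IL-3; FcεRI primed 5 days with rhIL-4 (1 ng/mL) and hIgE (0.5 μg/mL). Compound (0.1% DMSO) preincubated 10 min at 37 °C, then anti-IgE (final 10 μg/mL) 30 min; released β-hexosaminidase read at 405 nm versus total lysate, IC50 (M).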

[3] = HTRF, 100 μM ATP, 30 min room temperature, average, read-out: sykHTRF ave IC50
[4] = anti-hIgE stimulation, β-Hexosaminidase index, average
[5] = Tables 1-x, compounds A, read-out: sykHTRF ave IC50
[6] = Tables 2-x, thiophene compounds B, read-out: sykHTRK ave IC50
[7] = Tables 2-x, thiophene compounds B

IC50 [1, 3] | IC50 [2, 4] | Compound | other results
100 to 1000 nM | > 1000 nM | Cc1ccnc(Nc2cccc(-c3cnc([C@H](C)NC(=O)c4ccccc4)s3)n2)c1 [Compound A-348] | 
< 100 nM | 100 to 1000 nM | C[C@H](N)c1ncc(-c2cccc(Nc3cc(-c4ccncc4)ccn3)n2)s1 [Compound A-75, N-{6-[2-((S)-1-aminoethyl)thiazol-5-yl]pyridin-2-yl}-N-([4,4′]bipyridinyl-2-yl)amine] | 
100 to 1000 nM | 100 to 1000 nM | Cc1ccnc(Nc2cccc(-c3cnc([C@H]4CC[C@H](C(=O)N5CCC(CO)CC5)CC4)s3)n2)c1 [Compound A-242] | 
 |  | Cc1ccnc(Nc2cccc(-c3cnc(N4CCCC(COCC(=O)O)C4)s3)n2)c1 (stereo not drawn) [Compound A-497, (1-{5-[6-(4-methylpyridin-2-ylamino)pyridin-2-yl]thiazol-2-yl}piperidin-3-ylmethoxy)acetic acid dihydrochloride] | IC50 [1, 5]: < 100 nM; IC50 ([2]; Tables 1-x, compounds A): > 1000 nM
< 100 nM | 100 to 1000 nM | Cc1ccnc(Nc2cccc(-c3cnc(CN4CCC(O)CC4)s3)n2)c1 [Compound A-152, 1-{5-[6-(4-methylpyridin-2-ylamino)pyridin-2-yl]thiazol-2-ylmethyl}piperidin-4-ol] | 
 |  | Cc1ccnc(Nc2cccc(-c3cnc(N(C)C4CCOCC4)s3)n2)c1 [Compound A-470, N-methyl-N-{5-[6-(4-methylpyridin-2-ylamino)pyridin-2-yl]thiazol-2-yl}-N-tetrahydropyran-4-ylamine] | IC50 [1, 5]: < 100 nM; IC50 ([2]; Tables 1-x, compounds A): 100 to 1000 nM
100 to 1000 nM | 100 to 1000 nM | COc1ccnc(Nc2cccc(-c3cnc([C@H](C)NC(C)=O)s3)n2)c1 [Compound A-77] | 
 |  | OCC1CCN(c2ncc(-c3cccc(Nc4cc(Cl)ccn4)n3)s2)C1 (stereo not drawn) [Compound A-562, (1-{5-[6-(4-chloropyridin-2-ylamino)pyridin-2-yl]thiazol-2-yl}pyrrolidin-3-yl)methanol] | IC50 [1, 5]: < 100 nM; IC50 ([2]; Tables 1-x, compounds A): < 100 nM
 |  | Cc1ccnc(Nc2cccc(-c3cnc(COCC(=O)N4CC(=O)NC(=O)C4)s3)n2)c1 [Compound A-393] | IC50 [1, 5]: 100 to 1000 nM; IC50 ([2]; Tables 1-x, compounds A): > 1000 nM
100 to 1000 nM | > 1000 nM | CC(=O)N1C[C@H](OCc2ccccc2)C[C@H]1c1ncc(-c2cccc(Nc3cc(C)ccn3)n2)s1 [Compound A-90] | 
100 to 1000 nM | 100 to 1000 nM | Cc1ccnc(Nc2cccc(-c3cnc(C(=O)NCCCO)s3)n2)c1 [Compound A-53] | 
100 to 1000 nM | > 1000 nM | COC(=O)C(C)(C)NC(=O)c1ncc(-c2cccc(Nc3cc(C)ccn3)n2)s1 [Compound A-153] | 
 |  | Cc1ccnc(Nc2cccc(-c3ccc(NC(=O)OC(C)(C)C)s3)n2)c1 [Compound B-34] | IC50 [1, 6]: 100 to 1000 nM; IC50 [2, 7]: > 1000 nM
100 to 1000 nM | > 1000 nM | CC(=O)N[C@@H](CCC(=O)O)c1ncc(-c2cccc(Nc3cc(C)ccn3)n2)s1 [Compound A-103] | 
 |  | Cc1ccnc(Nc2cccc(-c3sccc3C)n2)c1 [Compound B-5] | IC50 [1, 6]: 100 to 1000 nM; IC50 [2, 7]: > 1000 nM
 |  | CC1(c2ccnc(Nc3cccc(-c4cnc(N5CCC[C@@H](C(=O)O)C5)s4)n3)c2)OCCO1 [Compound A-558, (R)-1-{5-(6-[4-(2-methyl-[1,3]dioxolan-2-yl)pyridin-2-ylamino]pyridin-2-yl}thiazol-2-yl)piperidine-3-carboxylic acid] | IC50 [1, 5]: < 100 nM; IC50 ([2]; Tables 1-x, compounds A): > 1000 nM
100 to 1000 nM | 100 to 1000 nM | COc1ccnc(Nc2cccc(-c3cnc([C@H](C)N)s3)n2)c1 [Compound A-76] | 
 |  | CN[C@@H](Cc1ccc(O)cc1)c1ncc(-c2cccc(Nc3cc(C)ccn3)n2)s1 [Compound A-384] | IC50 [1, 5]: 100 to 1000 nM; IC50 ([2]; Tables 1-x, compounds A): 100 to 1000 nM
< 100 nM | 100 to 1000 nM | Cc1ccnc(Nc2cccc(-c3cnc(COCC(=O)N4CCNC(=O)C4)s3)n2)c1 [Compound A-370, 4-(2-{5-[6-(4-methylpyridin-2-ylamino)pyridin-2-yl]thiazol-2-ylmethoxy}acetyl)piperazin-2-one] | 
 |  | CC(=O)c1ccc(-c2ncc(C)c(Nc3cc(C)ccn3)n2)s1 [Compound B-29] | IC50 [1, 6]: 100 to 1000 nM; IC50 [2, 7]: > 1000 nM
100 to 1000 nM | 100 to 1000 nM | Cc1ccnc(Nc2cccc(-c3cnc(CN4CCN(S(C)(=O)=O)CC4)s3)n2)c1 [Compound A-198] | 
 |  | O[C@@H]1CCN(c2ncc(-c3cccc(Nc4cc(Cl)ccn4)n3)s2)C1 [Compound A-539, (R)-1-{5-[6-(4-chloropyridin-2-ylamino)pyridin-2-yl]thiazol-2-yl}pyrrolidin-3-ol] | IC50 [1, 5]: < 100 nM; IC50 ([2]; Tables 1-x, compounds A): < 100 nM
 |  | Cc1ccnc(Nc2cccc(-c3cnc(CNC(=O)c4cc(C)on4)s3)n2)c1 [Compound A-395] | IC50 [1, 5]: 100 to 1000 nM; IC50 ([2]; Tables 1-x, compounds A): > 1000 nM

IC50 [1, 3] | IC50 [2, 4] | Compound | other results
 |  | CC(=O)NC(C)c1ccc(-c2cccc(Nc3cc(C)ccn3)n2)s1 (stereo not drawn) [Compound B-93] | IC50 [1, 6]: 100 to 1000 nM; IC50 [2, 7]: 100 to 1000 nM
 |  | COC(=O)CCNC(=O)c1ccc(-c2cccc(Nc3cc(C)ccn3)n2)s1 [Compound B-97] | IC50 [1, 6]: 100 to 1000 nM; IC50 [2, 7]: > 1000 nM
< 100 nM | 100 to 1000 nM | CNC(=O)[C@H]1CC[C@H](c2ncc(-c3cccc(Nc4cc(C)ccn4)n3)s2)CC1 [Compound A-336, N-methyl-trans-4-{5-[6-(4-methylpyridin-2-ylamino)pyridin-2-yl]thiazol-2-yl}cyclohexanecarboxamide] | 
100 to 1000 nM | 100 to 1000 nM | Cc1ccnc(Nc2cccc(-c3cnc([C@H](C)NC(=O)C4CC4)s3)n2)c1 [Compound A-141] | 
100 to 1000 nM | 100 to 1000 nM | Cc1ccnc(Nc2cccc(-c3cnc(C4CCN(S(C)(=O)=O)CC4)s3)n2)c1 [Compound A-353] | 
 |  | Cc1ccnc(Nc2cccc(-c3cnc(N(CC(N)=O)[C@H]4CC[C@@H](C(=O)O)CC4)s3)n2)c1 [Compound A-598, cis-4-(N-carbamoylmethyl-N-{5-[6-(4-methylpyridin-2-ylamino)pyridin-2-yl]thiazol-2-yl}amino)cyclohexanecarboxylic acid] | IC50 [1, 5]: < 100 nM; IC50 ([2]; Tables 1-x, compounds A): > 1000 nM
100 to 1000 nM | > 1000 nM | Cc1ccnc(Nc2cccc(-c3cnc([C@@H](N)CCC(=O)O)s3)n2)c1 [Compound A-106] | 
100 to 1000 nM | 100 to 1000 nM | CC(=O)N1CCN(Cc2ncc(-c3cccc(Nc4cc(C)ccn4)n3)s2)CC1 [Compound A-190] | 
 |  | CC(=NO)c1ccc(-c2cccc(Nc3cc(C)ccn3)n2)s1 [Compound B-15, 1-{5-[6-(4-methylpyridin-2-ylamino)pyridin-2-yl]thiophen-2-yl}ethanone oxime] | IC50 [1, 6]: < 100 nM; IC50 [2, 7]: 100 to 1000 nM
< 100 nM | 100 to 1000 nM | Cc1ccnc(Nc2cccc(-c3cnc(CCc4ccc(C(=O)NCCO)cc4)s3)n2)c1 [Compound A-162, N-(2-hydroxyethyl)-4-(2-{5-[6-(4-methylpyridin-2-ylamino)pyridin-2-yl]thiazol-2-yl}ethyl)benzamide] | 
100 to 1000 nM | > 1000 nM | Cc1ccnc(Nc2cccc(-c3cnc(CN4CCN(C)CC4)s3)n2)c1 [Compound A-209] | 
> 1000 nM | > 1000 nM | Cc1ccnc(Nc2cccc(-c3cnc(C(C)(C)NC(=O)OC(C)(C)C)s3)n2)c1 [Compound A-112] | 
100 to 1000 nM | 100 to 1000 nM | Cc1ccnc(Nc2cccc(-c3cnc(C4CCN(CCO)CC4)s3)n2)c1 [Compound A-189] | 
 |  | Cc1ccnc(Nc2cccc(-c3cnc(CNC4CCN(C(=O)OC(C)(C)C)CC4)s3)n2)c1 [Compound A-386] | IC50 [1, 5]: 100 to 1000 nM; IC50 ([2]; Tables 1-x, compounds A): 100 to 1000 nM
< 100 nM | 100 to 1000 nM | Cc1ccnc(Nc2cccc(-c3cnc([C@H](C)OC(=O)N(C)C)s3)n2)c1 [Compound A-345, dimethylcarbamic acid(S)-1-{5-[6-(4-methylpyridin-2-ylamino)pyridin-2-yl]thiazol-2-yl}ethyl ester] | 
> 1000 nM | > 1000 nM | CC(=O)N[C@@H](C)c1nc(C(C)=O)c(-c2cccc(Nc3cc(C)ccn3)n2)s1 [Compound A-126] | 
< 100 nM | 100 to 1000 nM | Cc1ccnc(Nc2cccc(-c3cnc(CCc4ccc(CO)cc4)s3)n2)c1 [Compound A-159, [4-(2-{5-[6-(4-methylpyridin-2-ylamino)pyridin-2-yl]thiazol-2-yl}ethyl)phenyl]methanol] | 
 |  | NC(=O)[C@@H]1CCCN1c1ncc(-c2cccc(Nc3cc(Cl)ccn3)n2)s1 [Compound A-542, (S)-1-{5-[6-(4-chloropyridin-2-ylamino)pyridin-2-yl]thiazol-2-yl}pyrrolidine-2-carboxamide] | IC50 [1, 5]: < 100 nM; IC50 ([2]; Tables 1-x, compounds A): < 100 nM
 |  | Cc1ccnc(Nc2cccc(-c3cnc(N4CCN(C(=O)CO)CC4)s3)n2)c1 [Compound A-439, 2-hydroxy-1-(4-{5-[6-(4-methylpyridin-2-ylamino)pyridin-2-yl]thiazol-2-yl}piperazin-1-yl)ethanone] | IC50 [1, 5]: < 100 nM; IC50 ([2]; Tables 1-x, compounds A): < 100 nM
 |  | Cc1ccnc(Nc2cccc(-c3cnc(N4CCC(OCC(=O)O)CC4)s3)n2)c1 [Compound A-594, (1-{5-[6-(4-methylpyridin-2-ylamino)pyridin-2-yl]thiazol-2-yl}piperidin-4-yloxy)acetic acid dihydrochloride] | IC50 [1, 5]: < 100 nM; IC50 ([2]; Tables 1-x, compounds A): > 1000 nM
100 to 1000 nM | > 1000 nM | Cc1ccnc(Nc2cccc(-c3cnc(CC(=O)N4CCC(O)CC4)s3)n2)c1 [Compound A-230] | 
100 to 1000 nM | 100 to 1000 nM | CNC(=O)COCc1ncc(-c2cccc(Nc3cc(C)ccn3)n2)s1 [Compound A-367] | 
